In US11180470B2, “Herbicidal pyrimidine compounds” (BASF SE, priority 2016, dated 2021):

Experiments:
[1] = test system: ECHCG; test: greenhouse experiment, pre-emergence treatment; assay type: in vivo, Echinocloa crus-galli; conditions: pre-emergence method, application rate 2000 g/ha, scale from 0 to 100
Description: (§1) The seeds of the test plants were sown separately for each species. For the pre-emergence treatment, the active ingredients, which had been suspended or emulsified in water, were applied directly after sowing by means of finely distributing nozzles. The containers were irrigated gently to promote germination and growth and subsequently covered with transparent plastic hoods until the plants had rooted. This cover caused uniform germination of the test plants, unless this had been impaired by the active ingredients. Depending on the species, the plants were kept at 10-25° C. or 20-35° C., respectively. The test period extended over 2 to 4 weeks. During this time, the plants were tended, and their response to the individual treatments was evaluated. Evaluation was carried out using a scale from 0 to 100. 100 means no emergence of the plants, or complete destruction of at least the aerial moieties, and 0 means no damage, or normal course of growth. A good herbicidal activity is given at values of at least 70 and a very good herbicidal activity is given at values of at least 85. The plants used in the greenhouse experiments were of the following species: [table]

[2] = test system: AMARE; test: greenhouse experiment, post-emergence treatment; assay type: in vivo, Amaranthus retroflexus; conditions: post-emergence method, scale from 0 to 100
Description: (§2) The culture containers used were plastic flowerpots containing loamy sand with approximately 3.0% of humus as the substrate. The seeds of the test plants were sown separately for each species.
(§3) For the post-emergence treatment, the test plants were first grown to a height of 3 to 15 cm, depending on the plant habit, and only then treated with the active ingredients which had been suspended or emulsified in water. For this purpose, the test plants were either sown directly and grown in the same containers, or they were first grown separately as seedlings and transplanted into the test containers a few days prior to treatment.
(§4) Depending on the species, the plants were kept at 10-25° C. or 20-35° C., respectively.
(§5) The test period extended over 2 to 4 weeks. During this time, the plants were tended, and their response to the individual treatments was evaluated.
(§6) Evaluation was carried out using a scale from 0 to 100. 100 means no emergence of the plants, or complete destruction of at least the aerial moieties, and 0 means no damage, or normal course of growth. A good herbicidal activity is given at values of at least 70 and a very good herbicidal activity is given at values of at least 85.
(§7) The plants used in the greenhouse experiments were of the following species: […]

[3] = test system: APESV; test: greenhouse experiment, pre-emergence treatment; assay type: in vivo, Apera spica-venti; conditions: pre-emergence method, application rate 2000 g/ha, scale from 0 to 100
Description: as §1

[4] = test system: ECHCG; test: greenhouse experiment, post-emergence treatment; assay type: in vivo, Echinocloa crus-galli; conditions: post-emergence method, scale from 0 to 100
Procedure: The seeds of the test plants were sown separately for each species. […] For this purpose, the test plants were either sown directly and grown in the same containers, or they were first grown separately as seedlings and transplanted into the test containers a few days prior to treatment. Depending on the species, the plants were kept at 10-25° C. or 20-35° C., respectively. The test period extended over 2 to 4 weeks. During this time, the plants were tended, and their response to the individual treatments was evaluated. Evaluation was carried out using a scale from 0 to 100. 100 means no emergence of the plants, or complete destruction of at least the aerial moieties, and 0 means no damage, or normal course of growth. A good herbicidal activity is given at values of at least 70 and a very good herbicidal activity is given at values of at least 85. The plants used in the greenhouse experiments were of the following species: [table]

[5] = test system: AVEFA; test: greenhouse experiment, post-emergence treatment; assay type: in vivo, Avena fatua; conditions: post-emergence method, application rate 2000 g/ha, scale from 0 to 100
Description: as §2, §3, §4, §5, §6, §7

[6] = test system: SETVI; test: greenhouse experiment, post-emergence treatment; assay type: in vivo, Setaria viridis; conditions: post-emergence method, application rate 2000 g/ha, scale from 0 to 100
Description: as §2, §3, §4, §5, §6, §7

[7] = test system: ALOMY; test: greenhouse experiment, post-emergence treatment; assay type: in vivo, Alopecurus myosuroides; conditions: post-emergence method, application rate 2000 g/ha, scale from 0 to 100
Description: as §2, §3, §4, §5, §6, §7

Cc1ccsc1-c1cnc(C2CC2)nc1C(=O)O [Example 3]
herbicidal activity against ECHCG [1]: very good (a very good herbicidal activity is given at values of at least 85)
herbicidal activity against AMARE ([2]; application rate 2000 g/ha): very good (a very good herbicidal activity is given at values of at least 85)
herbicidal activity against APESV [3]: very good (a very good herbicidal activity is given at values of at least 85)
herbicidal activity against ECHCG ([4]; application rate 2000 g/ha): very good (a very good herbicidal activity is given at values of at least 85)

COC(=O)c1nc(C2CC2)ncc1-c1occc1C(F)F [Example 17]
herbicidal activity against AMARE ([2]; application rate 2000 g/ha): very good (a very good herbicidal activity is given at values of at least 85)

COC(=O)c1nc(C2CC2)ncc1-c1cccnc1Br [Example 18]
herbicidal activity against ECHCG [1]: very good (a very good herbicidal activity is given at values of at least 85)
herbicidal activity against AMARE ([2]; application rate 2000 g/ha): very good (a very good herbicidal activity is given at values of at least 85)
herbicidal activity against APESV [3]: very good (a very good herbicidal activity is given at values of at least 85)
herbicidal activity against ECHCG ([4]; application rate 2000 g/ha): very good (a very good herbicidal activity is given at values of at least 85)
herbicidal activity against AVEFA [5]: very good (a very good herbicidal activity is given at values of at least 85)

O=C(O)c1nc(C2CC2)ncc1-c1ncc(F)cc1Br [Example 24]
herbicidal activity against ECHCG [1]: very good (a very good herbicidal activity is given at values of at least 85)
herbicidal activity against AMARE ([2]; application rate 2000 g/ha): very good (a very good herbicidal activity is given at values of at least 85)
herbicidal activity against APESV [3]: very good (a very good herbicidal activity is given at values of at least 85)
herbicidal activity against ECHCG ([4]; application rate 2000 g/ha): very good (a very good herbicidal activity is given at values of at least 85)
herbicidal activity against AVEFA [5]: very good (a very good herbicidal activity is given at values of at least 85)

COC(=O)c1nc(C2CC2)ncc1-c1ncccc1Br [Example 28]
herbicidal activity against ECHCG [1]: very good (a very good herbicidal activity is given at values of at least 85)
herbicidal activity against SETVI [6]: good (A good herbicidal activity is given at values of at least 70)
herbicidal activity against ALOMY [7]: very good (a very good herbicidal activity is given at values of at least 85)
herbicidal activity against APESV [3]: very good (a very good herbicidal activity is given at values of at least 85)

COC(=O)c1nc(C2CC2)ncc1-c1cnccc1Br [Example 32]
herbicidal activity against ECHCG [1]: very good (a very good herbicidal activity is given at values of at least 85)
herbicidal activity against AMARE ([2]; application rate 2000 g/ha): very good (a very good herbicidal activity is given at values of at least 85)
herbicidal activity against APESV [3]: very good (a very good herbicidal activity is given at values of at least 85)

COC(=O)c1nc(C2CC2)ncc1-c1cnccc1Br [Example 34]
herbicidal activity against SETVI [6]: very good (a very good herbicidal activity is given at values of at least 85)
herbicidal activity against ALOMY [7]: very good (a very good herbicidal activity is given at values of at least 85)
herbicidal activity against ECHCG ([4]; application rate 2000 g/ha): very good (a very good herbicidal activity is given at values of at least 85)

O=C(O)c1nc(C2CC2)ncc1-c1ccncc1Br [Example 38]
herbicidal activity against ECHCG [1]: very good (a very good herbicidal activity is given at values of at least 85)
herbicidal activity against ALOMY [7]: very good (a very good herbicidal activity is given at values of at least 85)
herbicidal activity against AMARE ([2]; application rate 2000 g/ha): very good (a very good herbicidal activity is given at values of at least 85)
herbicidal activity against APESV [3]: very good (a very good herbicidal activity is given at values of at least 85)
herbicidal activity against AVEFA [5]: very good (a very good herbicidal activity is given at values of at least 85)

O=C(O)c1nc(C2CC2)ncc1-c1ncccc1I [Example 39]
herbicidal activity against ECHCG [1]: very good (a very good herbicidal activity is given at values of at least 85)
herbicidal activity against ALOMY [7]: good (A good herbicidal activity is given at values of at least 70)
herbicidal activity against APESV [3]: very good (a very good herbicidal activity is given at values of at least 85)
herbicidal activity against ECHCG ([4]; application rate 2000 g/ha): good (A good herbicidal activity is given at values of at least 70)
herbicidal activity against AVEFA [5]: very good (a very good herbicidal activity is given at values of at least 85)

O=Cc1ccoc1-c1cnc(C2CC2)nc1C(=O)O [Example 40]
herbicidal activity against AMARE ([2]; application rate 2000 g/ha): very good (a very good herbicidal activity is given at values of at least 85)

COC(=O)c1nc(C2CC2)ncc1-c1ncc(F)cc1Cl [Example 41]
herbicidal activity against ECHCG [1]: very good (a very good herbicidal activity is given at values of at least 85)
herbicidal activity against SETVI [6]: very good (a very good herbicidal activity is given at values of at least 85)
herbicidal activity against ALOMY [7]: very good (a very good herbicidal activity is given at values of at least 85)
herbicidal activity against APESV [3]: very good (a very good herbicidal activity is given at values of at least 85)
herbicidal activity against AVEFA [5]: very good (a very good herbicidal activity is given at values of at least 85)

O=C(O)c1nc(C2CC2)ncc1-c1ncc(F)cc1Cl [Example 42]
herbicidal activity against ECHCG [1]: very good (a very good herbicidal activity is given at values of at least 85)
herbicidal activity against ALOMY [7]: very good (a very good herbicidal activity is given at values of at least 85)
herbicidal activity against APESV [3]: very good (a very good herbicidal activity is given at values of at least 85)
herbicidal activity against ECHCG ([4]; application rate 2000 g/ha): very good (a very good herbicidal activity is given at values of at least 85)
herbicidal activity against AVEFA [5]: very good (a very good herbicidal activity is given at values of at least 85)

COC(=O)c1nc(OC)ncc1-c1ncccc1F [Example 46]
herbicidal activity against AMARE ([2]; application rate 2000 g/ha): good (A good herbicidal activity is given at values of at least 70)

CCc1ncc(-c2cccnc2Br)c(C(=O)O)n1 [Example 48]
herbicidal activity against SETVI [6]: very good (a very good herbicidal activity is given at values of at least 85)

CCc1ncc(-c2ncccc2Br)c(C(=O)O)n1 [Example 49]
herbicidal activity against ECHCG [1]: very good (a very good herbicidal activity is given at values of at least 85)
herbicidal activity against SETVI [6]: very good (a very good herbicidal activity is given at values of at least 85)

COC(=O)c1nc(OC)ncc1-c1ncc(F)cc1F [Example 53]
herbicidal activity against SETVI [6]: good (A good herbicidal activity is given at values of at least 70)

CCc1ncc(-c2ncc(F)cc2Br)c(C(=O)O)n1 [Example 54]
herbicidal activity against AMARE ([2]; application rate 1000 g/ha): very good (a very good herbicidal activity is given at values of at least 85)
herbicidal activity against ECHCG ([4]; application rate 1000 g/ha): very good (a very good herbicidal activity is given at values of at least 85)

O=C(O)c1nc(C2CC2)ncc1-c1nc(C(F)(F)F)ccc1F [Example 62]
herbicidal activity against ECHCG [1]: very good (a very good herbicidal activity is given at values of at least 85)
herbicidal activity against ALOMY [7]: very good (a very good herbicidal activity is given at values of at least 85)
herbicidal activity against APESV [3]: very good (a very good herbicidal activity is given at values of at least 85)
herbicidal activity against ECHCG ([4]; application rate 2000 g/ha): very good (a very good herbicidal activity is given at values of at least 85)
herbicidal activity against AVEFA [5]: very good (a very good herbicidal activity is given at values of at least 85)

O=C(O)c1nc(C2CC2)ncc1-c1cc(C(F)(F)F)ncc1Cl [Example 64]
herbicidal activity against ECHCG [1]: very good (a very good herbicidal activity is given at values of at least 85)
herbicidal activity against ALOMY [7]: very good (a very good herbicidal activity is given at values of at least 85)
herbicidal activity against APESV [3]: very good (a very good herbicidal activity is given at values of at least 85)
herbicidal activity against ECHCG ([4]; application rate 2000 g/ha): good (A good herbicidal activity is given at values of at least 70)
herbicidal activity against AVEFA [5]: very good (a very good herbicidal activity is given at values of at least 85)
